Test [1] concerns INS-1E cells. Put plainly: Cellular ATP levels (CellTiter-Glo) in cytokine-treated INS-1E cells; suppression of cytokine-induced beta-cell apoptosis. The note with it: Rattus norvegicus. Format: cell-based, rat. On the technique in general: In ATP-based viability assays light output follows the ATP content of the culture.
Test [2] has as its system INS-1E cells. Put plainly: Caspase-3 activity assay (Caspase-Glo 3/7) in cytokine-treated INS-1E cells. The test is classed as cell-based, rat. The note with it: cytokines. How it is done:
INS-1E cells were seeded at 5,000 cells per well in white optical 384-well plates and treated as described for highthroughput screening. After treatment with cytokines and compounds for 48 h, medium was removed and 20 μL Caspase-Glo 3/7 reagent was added. Luminescence was measured after 2 h of incubation using an EnVision plate reader.

The test system of test [3] is INS-1E cells. Kind of test: Glucose-stimulated insulin secretion in cytokine-treated INS-1E cells. Particulars: cytokines. Format: cell-based, rat. How it is done:
INS-1E cells were seeded in 96-well plates at 20,000 cells per well and incubated for 48 h in 100 μL of fresh RPMI containing 1% FBS and the cytokine cocktail, in the presence or absence of compounds. Cells were washed and incubated for 2 h in KRBH (135 mM NaCl, 3.6 mM KCl, 5 mM NaHCO3, 0.5 mM NaH2PO4, 0.5 mM MgCl2, 1.5 mM CaCl2, 10 mM HEPES, pH 7.4, 0.1% BSA) without glucose. Cells were subsequently incubated with KRBH containing 2 or 15 mM glucose for 1 h. The supernatant was taken for measurement of released insulin, and 100 μL of acidified ethanol was added to each well for extraction and measurement of cellular insulin content. Insulin was measured with a rat insulin ELISA kit (Alpco).

Another test relates to STAT1. Put plainly: GAS reporter assay (cytokine-induced STAT1 reporter gene activity). Format: cell-based. The note with it: FIG. 7. As to the method:
INS-1E cells were transfected with plasmids (GAS reporter assay kit) using DharmaFECT reagent according to the manufacturer's protocol (SABiosciences) in white optical 384-well plates (Corning Life Sciences). After overnight incubation, medium was removed and 50 μL RPMI containing the treated compound, 1% FBS and a combination of cytokines (10 ng/mL IL-1β, 50 ng/mL IFN-γ, 25 ng/mL TNF-α) was added to every well. After treatment with cytokines and compounds for 18 hr, luminescence was measure using Dual-Glo according to the manufacturer's protocol (Promega).

Test [4] deals with T1, Usp9x (Homo sapiens, UniProt Q93008).
T1 construct: made in house
Put plainly: Usp9x thermal shift assay. Format: binding. The note with it: FIG. 14, purified Usp9x, compared with WP1130. As to the method:
For each purification, fifty 25-cm dishes of confluent HEK-293 cell lines stably expressing wild-type USP-9X (provided by Dr. Dario Alessi, University of Dundee, Scotland) were employed. Cells were washed twice with ice-cold PBS and lysed in 1 ml of ice-cold lysis buffer. The combined lysates were centrifuged at 26000 g for 30 min at 4° C. and the supernatant incubated with 0.2 ml of rabbit IgG-agarose beads (Sigma) for 1 h at 4° C. The IgG-agarose was washed extensively with lysis buffer containing 0.15 M NaCl, then with several washes in buffer B prior to incubation with 0.250 ml of buffer B containing 0.1 mg of TEV protease (Invitrogen). After 3 h at 4° C.˜70-90% of the TAP-tagged protein had been cleaved from the IgG-agarose and the eluted protein was incubated with 0.1 ml of rabbit calmodulin-Sepharose (Roche) equilibrated in buffer C. After 1 h at 4° C., the calmodulin-Sepharose was washed with buffer C. To elute the protein, the calmodulin-Sepharose was then incubated with 0.1 ml of buffer D for 10 min at 4° C. The eluate was removed from the beads and the elution repeated two or three times. To remove the NaCl present in the buffer containing the eluate protein, the eluates were centrifuged at 1500 g for 1 min at 4° C. in protein desalting spin columns. […]

Test [5] deals with Usp9x. Put plainly: Low-throughput compound pull-down and Western blot. Particulars: FIG. 13, Western blot. The test is classed as binding. In general terms: Immunoblotting shows a protein as a band on a membrane.

Here are results for 1 compound from patent US8741905B2, “Compounds and methods for treating autoimmune diseases” (The Broad Institute, Inc., priority 2010, dated 2014).

As a reminder, the EC50 is the concentration at which the effect is half-maximal. For orientation: IC50 means the concentration that inhibits the measured activity by half.

Some results are limits rather than exact numbers.

T1 sequence (Q93008 whole entry): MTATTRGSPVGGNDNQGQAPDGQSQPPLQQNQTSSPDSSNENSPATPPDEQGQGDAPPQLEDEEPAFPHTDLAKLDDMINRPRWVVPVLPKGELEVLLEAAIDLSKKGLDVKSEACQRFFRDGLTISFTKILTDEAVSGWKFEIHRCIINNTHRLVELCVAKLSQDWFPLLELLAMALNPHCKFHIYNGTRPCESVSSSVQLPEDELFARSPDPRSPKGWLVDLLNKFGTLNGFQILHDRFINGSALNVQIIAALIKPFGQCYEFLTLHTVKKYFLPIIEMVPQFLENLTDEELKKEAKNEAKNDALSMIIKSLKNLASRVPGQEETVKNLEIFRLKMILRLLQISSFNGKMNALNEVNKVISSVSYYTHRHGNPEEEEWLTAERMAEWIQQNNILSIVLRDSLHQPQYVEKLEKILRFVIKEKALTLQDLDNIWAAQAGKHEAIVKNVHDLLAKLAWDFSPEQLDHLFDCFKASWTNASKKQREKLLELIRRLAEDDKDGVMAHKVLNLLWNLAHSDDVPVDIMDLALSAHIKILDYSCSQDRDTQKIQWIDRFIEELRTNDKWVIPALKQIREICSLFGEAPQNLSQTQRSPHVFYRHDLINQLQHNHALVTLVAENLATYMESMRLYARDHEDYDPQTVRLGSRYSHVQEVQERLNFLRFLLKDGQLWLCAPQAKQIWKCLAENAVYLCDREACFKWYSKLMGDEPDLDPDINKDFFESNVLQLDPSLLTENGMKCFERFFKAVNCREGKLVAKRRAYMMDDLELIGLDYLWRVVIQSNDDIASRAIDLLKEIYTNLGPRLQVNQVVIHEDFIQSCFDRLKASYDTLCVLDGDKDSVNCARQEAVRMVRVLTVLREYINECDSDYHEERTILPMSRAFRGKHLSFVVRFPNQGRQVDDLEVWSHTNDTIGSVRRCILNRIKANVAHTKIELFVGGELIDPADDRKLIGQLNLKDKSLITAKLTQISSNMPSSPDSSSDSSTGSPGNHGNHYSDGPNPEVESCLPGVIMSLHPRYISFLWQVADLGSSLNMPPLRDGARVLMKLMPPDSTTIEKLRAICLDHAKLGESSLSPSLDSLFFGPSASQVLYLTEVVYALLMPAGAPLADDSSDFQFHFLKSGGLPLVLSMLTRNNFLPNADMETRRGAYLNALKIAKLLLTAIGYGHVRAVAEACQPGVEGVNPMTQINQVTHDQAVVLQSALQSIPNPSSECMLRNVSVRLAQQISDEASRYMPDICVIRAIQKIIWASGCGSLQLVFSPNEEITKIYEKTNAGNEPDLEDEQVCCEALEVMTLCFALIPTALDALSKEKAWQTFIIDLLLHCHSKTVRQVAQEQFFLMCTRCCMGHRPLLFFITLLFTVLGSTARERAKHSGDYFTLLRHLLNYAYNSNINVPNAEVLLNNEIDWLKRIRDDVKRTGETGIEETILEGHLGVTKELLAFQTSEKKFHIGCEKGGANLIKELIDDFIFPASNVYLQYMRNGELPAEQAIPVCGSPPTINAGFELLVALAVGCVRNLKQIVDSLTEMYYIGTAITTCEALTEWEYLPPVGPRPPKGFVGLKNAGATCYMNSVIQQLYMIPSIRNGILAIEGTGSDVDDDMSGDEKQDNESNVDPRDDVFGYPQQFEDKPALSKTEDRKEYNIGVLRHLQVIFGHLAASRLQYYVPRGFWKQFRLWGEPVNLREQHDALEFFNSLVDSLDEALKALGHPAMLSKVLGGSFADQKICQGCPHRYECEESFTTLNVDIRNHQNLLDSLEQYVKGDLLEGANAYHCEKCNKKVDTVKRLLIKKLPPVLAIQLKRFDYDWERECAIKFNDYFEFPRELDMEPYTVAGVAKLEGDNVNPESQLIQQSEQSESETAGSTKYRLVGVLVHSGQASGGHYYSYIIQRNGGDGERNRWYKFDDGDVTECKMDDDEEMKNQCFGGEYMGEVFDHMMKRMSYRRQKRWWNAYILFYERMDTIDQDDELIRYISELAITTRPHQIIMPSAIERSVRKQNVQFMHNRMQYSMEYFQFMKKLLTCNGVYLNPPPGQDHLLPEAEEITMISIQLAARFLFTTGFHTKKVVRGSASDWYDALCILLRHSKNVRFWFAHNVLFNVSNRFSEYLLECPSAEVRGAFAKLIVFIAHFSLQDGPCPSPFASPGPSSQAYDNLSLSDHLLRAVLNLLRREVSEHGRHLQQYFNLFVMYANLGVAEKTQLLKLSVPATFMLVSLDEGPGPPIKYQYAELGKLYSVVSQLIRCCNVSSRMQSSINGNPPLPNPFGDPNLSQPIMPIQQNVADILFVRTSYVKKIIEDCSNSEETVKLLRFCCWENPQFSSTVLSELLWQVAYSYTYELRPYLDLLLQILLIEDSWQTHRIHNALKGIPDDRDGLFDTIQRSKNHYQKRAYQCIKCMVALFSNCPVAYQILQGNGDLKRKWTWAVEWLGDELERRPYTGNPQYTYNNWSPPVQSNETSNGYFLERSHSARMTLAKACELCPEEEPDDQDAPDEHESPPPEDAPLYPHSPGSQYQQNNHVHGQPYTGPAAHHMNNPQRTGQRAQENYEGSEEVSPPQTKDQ

For the compound `C[C@@H]1CN([C@@H](C)CO)C(=O)c2cccc(NC(=O)Nc3cccc4ccccc34)c2O[C@H]1CN(C)S(=O)(=O)c1ccc2c(c1)OCCO2` [Compound 21A, N-(((2R,3R)-5-((S)-1-Hydroxypropan-2-yl)-3-methyl-10-(3-(naphthalen-1-yl)ureido)-6-oxo-3,4,5,6-tetrahydro-2H-benzo[b][1,5]oxazocin-2-yl)methyl)-N-methyl-2,3-dihydrobenzo-[b][1,4]dioxine-6-sulfonamide], the concentration for a half-maximal effect (EC50) in the test with INS-1E cells [1] (INS-1E, assay not named, read-out: EC50) is 770 nM; in the test on INS-1E cells [1] (INS-1E cells, cytokines IL-1β, IFN-γ, TNF-α, 48 h, CellTiter-Glo, read-out: CTG EC50 in HTS) it was greater than 100 nM; in the test with INS-1E cells [2] (Rattus norvegicus, 48 h, Caspase-Glo 3/7), greater than 10000 nM. Further, the concentration for half-maximal inhibition (IC50) in the test on INS-1E cells [1] (INS-1E, read-out: IC50, inhibition of cytokine-induced beta cell apoptosis) amounted to 770 nM. In addition, the “caspase-3/7 activity in INS-1E cells” value with INS-1E cells [2] is “decreased caspase-3/7 activity”. Further, in the test with INS-1E cells [3], the “glucose-stimulated insulin secretion (GSIS)” value is listed as “restored glucose-stimulated insulin secretion (GSIS), showing improved beta-cell function, to nearly normal levels”. In addition, in the test with STAT1, the “cytokine-induced STAT1 reporter gene activity” value was “inhibits cytokine-induced STAT1 reporter gene activity”. The Usp9x thermal shift result on Usp9x [4] is on record as “suggests binding”. For the same compound, the “protein isolated by compound pull-down” value with Usp9x [5] is “Usp9x isolated”.
